Experimental findings from patent US20090306149A1, “USE OF BIARYLCARBOXAMIES IN THE TREATMENT OF HEDGEHOG PATHWAY-RELATED DISORDERS” (priority 2006, published 2009) are described below.

Molecules are shown by their SMILES. Where two headings read alike, the source gives them in different places.

Experiment [1] relates to gli-luciferase activity (Hh pathway) in TMHh12 cells. The experiment is described as follows: "IC50 shift" gli-luciferase reporter assay in TMHh12 cells with a small molecule Smo agonist. The experiment is classed as cell-based, mouse. The note with it: Mus musculus, TMHh12, TMHh12 cells. On the procedure: (§1) TM3 cells (mouse) transfected with a new proprietary reporter construct (pTA-8xGli-Luc). The pTA-8xGli-Luc reporter produces approx. 4 fold more luciferase activity than classical 8xGli-LUC. A highly responsive stable clone has been selected (TMHh12) with >10-fold signal/noise ratio and <10% CV in 384 well format.
“IC50 shift” assays in TMHh12 cells. IC50 for antagonism of gli-luciferase activity was tested in the presence of increasing concentrations of a small molecule agonist which binds to Smo with 1 nM affinity and activates the Hh pathway.
Table 1 lists the IC50 of antagonists determined in the presence of different (1 nM and 25 nM) concentrations of a small agonist of Smoothened.

Another experiment has as its target Smoothened (Homo sapiens, UniProt Q99835). The experiment is described as follows: Smo binding assay, displacement of a small molecule agonist of Smoothened, filter binding format. From the text:
A Smo binding assay was developed using radio-labeled smoothened agonist for compound competition.
Table 1, infra; lists the IC50 for displacement of a small molecule agonist of Smoothened determined in a filter binding format.

For experiment [2], the system named is Shh-mediated pathway activation (Gli-luciferase activity of TMHh12 cells). Description: Gli-Luc reporter assay for Hh pathway inhibition in TMHh12 cells in the presence of Shh protein. It is filed as cell-based. Particulars: Mus musculus, read-out: EC50 to block Shh-mediated pathway activation. How it is done: as §1
Gli-Luc Reporter Assay for Hh Pathway Inhibition
Gli-luciferase activity of TMHh12 cells was determined in the presence of Shh protein.
Background: Reporter assays use an easily measured gene product as a stand-in for the process of interest.

Setting [3] is: 1 nM small molecule Smo agonist, read-out: Gli_luc (1 nM Smo agonist) IC50.
The mark [4] stands for this setting: 25 nM small molecule Smo agonist, read-out: Gli_luc (25 nM Smo agonist) IC50.

Chain of Smoothened (Q99835 28-787): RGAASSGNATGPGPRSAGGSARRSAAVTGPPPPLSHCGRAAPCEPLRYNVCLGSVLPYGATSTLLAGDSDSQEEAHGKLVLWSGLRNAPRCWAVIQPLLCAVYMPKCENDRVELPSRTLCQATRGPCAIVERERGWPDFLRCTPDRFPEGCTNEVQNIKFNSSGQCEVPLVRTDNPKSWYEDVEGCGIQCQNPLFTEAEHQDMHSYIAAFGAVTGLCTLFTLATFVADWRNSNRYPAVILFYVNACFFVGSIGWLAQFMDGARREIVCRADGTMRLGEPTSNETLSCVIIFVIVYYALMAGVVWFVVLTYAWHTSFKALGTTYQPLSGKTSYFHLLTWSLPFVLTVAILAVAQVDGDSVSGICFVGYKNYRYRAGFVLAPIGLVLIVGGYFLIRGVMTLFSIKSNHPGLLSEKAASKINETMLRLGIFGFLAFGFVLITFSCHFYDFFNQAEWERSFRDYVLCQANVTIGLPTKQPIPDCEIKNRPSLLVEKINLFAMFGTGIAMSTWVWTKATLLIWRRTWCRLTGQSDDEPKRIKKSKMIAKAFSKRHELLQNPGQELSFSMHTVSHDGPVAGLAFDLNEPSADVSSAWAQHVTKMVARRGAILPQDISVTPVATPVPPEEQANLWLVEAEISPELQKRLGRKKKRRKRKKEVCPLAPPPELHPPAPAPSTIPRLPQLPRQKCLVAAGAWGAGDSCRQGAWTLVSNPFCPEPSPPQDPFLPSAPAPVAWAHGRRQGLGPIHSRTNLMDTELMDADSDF

As for `Cc1cccc(C(=O)Nc2ccc3c(c2)C[C@@H](NCc2ccccn2)C3)c1-c1ccc(C(F)(F)F)cc1` [Example 6, 6-Methyl-4′-trifluoromethyl-biphenyl-2-carboxylic acid {(S)-2-[(pyridin-2-ylmethyl)-amino]-indan-5-yl}-amide], the IC50 in experiment [1] (setting [3]) is 19 nM; in experiment [1] (setting [4]), 279 nM; on Smoothened, 15 nM. Also, the EC50 in experiment [2] stood at 9.4 nM.
For `Cc1csc(CN[C@H]2Cc3ccc(NC(=O)c4cccc(C)c4-c4ccc(C(F)(F)F)cc4)cc3C2)n1` [Example 5, 6-Methyl-4′-trifluoromethyl-biphenyl-2-carboxylic acid {(S)-2-[(4-methyl-thiazol-2-ylmethyl)-amino]-indan-5-yl}-amide], the figures for the IC50 (in experiment [1] (setting [3]); in experiment [1] (setting [4]); on Smoothened) were under 5 nM, 139 nM and 3 nM, respectively.
Taken in the same sequence, the figures for `Cc1cccc(C(=O)Nc2ccc3c(c2)CC(NCc2nccn2C)C3)c1-c1ccc(C(F)(F)F)cc1` (stereo not drawn) [Example 40] were 145 nM, 1910 nM and 445 nM.
For `COc1ccc(CN[C@H]2Cc3ccc(NC(=O)c4cccc(C)c4-c4ccc(C(F)(F)F)cc4)cc3C2)cn1` [Example 32], in that order: 261 nM, 2860 nM and 130 nM.
In the case of `Cc1cccc(C(=O)Nc2ccc3c(c2)CC(NCc2c[nH]c4ccccc24)C3)c1-c1ccc(C(F)(F)F)cc1` (stereo not drawn) [Example 61], the results for the IC50 (in experiment [1] (setting [3]); in experiment [1] (setting [4]); on Smoothened) were 2100 nM, 11900 nM and 299 nM, respectively.
As for `Cc1cccc(C(=O)Nc2ccc3c(c2)C[C@@H](NCc2ccc(-n4ccnc4)cc2)C3)c1-c1ccc(C(F)(F)F)cc1` [Example 28], the concentration for half-maximal inhibition (IC50) in experiment [1] (setting [3]) amounted to 12 nM; in experiment [1] (setting [4]), 481 nM; on Smoothened, 2 nM.
In the case of `Cc1cccc(C(=O)Nc2ccc3c(c2)CCC(NS(=O)(=O)c2ccccc2F)CC3)c1-c1ccc(C(F)(F)F)cc1` (stereo not drawn) [Example 106], the figures for the IC50 (in experiment [1] (setting [3]); at Smoothened) were 5960 nM and 330 nM, respectively.
As for `Cc1cccc(C(=O)Nc2ccc3c(c2)C[C@@H](Nc2ccccc2)C3)c1-c1ccc(C(F)(F)F)cc1` [Example 74, 6-Methyl-4′-trifluoromethyl-biphenyl-2-carboxylic acid ((S)-2-phenylamino-indan-5-yl)-amide], the half-maximal inhibitory concentration (IC50) in experiment [1] (setting [3]) amounted to 19 nM; in experiment [1] (setting [4]), 557 nM; at Smoothened it was 47 nM.

In general, IC50 refers to the midpoint of a concentration-inhibition curve. What is called EC50 is the concentration giving half of the maximal effect.
